Earlier results in patent publication US8785634B2, “Spiropiperidine prolylcarboxypeptidase inhibitors” (Merck Sharp & Dohme Corp, priority 2010, dated 2014).

How the values were obtained:
[1] = in vivo
rats = settings: intracerebroventricular
[2] = system: obese, leptin deficient mice; settings: systemic administration

Question: With CCN[C@@H](C)Cc1cccc(C(F)(F)F)c1 [dexfenfluramine] as the compound, how does the “weight loss, of body weight, drug compared to placebo” value (from here on “weight loss … compared to placebo”) [1] read?
Answer: 5%-10%

Question: Which “weight loss … compared to placebo” value [1] does the source give for CCCCCCCCCCC[C@@H](C[C@@H]1OC(=O)[C@H]1CCCCCC)OC(=O)[C@H](CC(C)C)NC=O [orlistat] here?
Answer: 5%-10%

Question: With CC(C)(N)Cc1ccccc1 [phentermine] as the compound, how does the “weight loss … compared to placebo” value [1] read?
Answer: 5%-10%

Question: With CC(C)CC(N(C)C)C1(c2ccc(Cl)cc2)CCC1 (stereo not drawn) [sibutramine] as the compound, how does the “weight loss … compared to placebo” value [1] read?
Answer: 5%-10%

Question: What does the source list for t-butyl carbamate-prolyl prolinal [BPP]?
Answer: overnight food intake (rats): suppression of overnight food intake; overnight food intake [2]: suppression of overnight food intake
